Read-outs that look alike come from different tables or passages of the source.
Columns and labels:
5HT2A receptor = 5HT2A receptor (Rattus norvegicus (Rat), UniProt P14842); assay: 5HT2A receptor assay ([3H]-Ketanserin, rat brain mantle membrane); format: binding; conditions: for inhibition at 10 µM: read-out: 5HT2A Inhibition %; for IC50: values marked a = IC50
D2 receptor = D2 receptor (Rattus norvegicus (Rat), UniProt P61169); assay: D2 receptor binding assay (3H-Spiperone, rat brain striatum membrane); conditions: read-out: D2 Inhibition %
Sequence of D2 receptor (P61169 whole entry): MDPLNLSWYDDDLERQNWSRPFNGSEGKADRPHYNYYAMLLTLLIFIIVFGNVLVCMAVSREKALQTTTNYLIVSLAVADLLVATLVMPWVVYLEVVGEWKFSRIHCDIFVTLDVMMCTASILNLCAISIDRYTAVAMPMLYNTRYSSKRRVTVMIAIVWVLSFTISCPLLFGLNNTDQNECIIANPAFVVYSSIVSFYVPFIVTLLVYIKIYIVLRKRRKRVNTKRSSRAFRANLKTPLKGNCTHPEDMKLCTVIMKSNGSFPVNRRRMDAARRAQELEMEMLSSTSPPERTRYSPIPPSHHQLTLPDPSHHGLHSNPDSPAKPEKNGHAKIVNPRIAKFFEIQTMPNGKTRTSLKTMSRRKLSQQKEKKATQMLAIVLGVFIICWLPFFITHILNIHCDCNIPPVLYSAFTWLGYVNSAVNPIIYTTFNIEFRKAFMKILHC
Experimental: Brain striatum was rapidly taken, and 2 brain striatums were combined into a centrifuge tube, to which 3 ml of buffer (0.05 M Tris-HCl buffer, containing NaCl 120 mM, KCl 5 mM, MgCl2 1 mM, CaCl2 1 mM) was added, homogenization was conducted for 3-4 s at level 4 for four times, and then 5 ml of buffer was then added. The weight of the homogenized tubes were adjusted using a balance, and centrifugation was conducted at 12000 r, 4° C. for 20 min. The supernatant was discarded, and 3 ml of buffer was added (0.05 M Tris-HCl buffer, containing NaCl 120 mM, KCl 5 mM, MgCl2 1 mM, CaCl2 1 mM). Vortex mixer was used for blending, and then 5 ml of buffer was added (0.05 M Tris-HCl buffer, containing NaCl 120 mM, KCl 5 mM, MgCl2 1 mM, CaCl2 1 mM). Centrifugation was conducted and repeated 3 times. After the centrifugations, the supernatant was discarded, and the pellets were stored at −80° C. for future use.
Beckman LS-6500 Multi-function Liquid Scintillation Counter was used.
(1) The prepared membrane was first applied with appropriate amount of buffer (0.05 M Tris-HCl buffer, containing NaCl 120 mM, KCl 5 mM, MgCl2 1 mM, CaCl2 1 mM), and homogenizer was used for evenly dispersing. 15 tubes were mixed into a 100 ml container, and appropriate amount of homogenized liquid was added to give 50 ml of membrane suspension, which was reserved for future use.
(2) 100 μL of membrane preparation and 100 μL of buffer (0.05 M Tris-HCl buffer, containing NaCl 120 mM, KCl 5 mM, MgCl2 1 mM, CaCl2 1 mM) were added into each reaction tube.
(3) 100 μL of homogenized liquid was added into the total binding tube (TB), 100 μL of Butaclamol (final concentration 10^−5 M) was added into the non-specific binding tube (NB), and 100 μL of the test compound (final concentration 10^−5 M) was added into the specific binding tube (SB) for each compound.
(5) Each of the reaction tubes was incubated at 37° C. for 20 min. After the reaction was completed, the bound ligands were rapidly filtered under reduced pressure, and the ice-chilled assay buffer was used for adequate washing. The filter was taken out and put into a 3 ml scintillation vial, and 2 ml of toluene scintillation solution was added and blended.
(6) The scintillation vials were put into Liquid Scintillation Counter for counting. Inhibitory rate(1%)=[(Total binding tube cpm−compound cpm)/(Total binding tube cpm−non-specific binding tube cpm)]×100%
Each assay for the compounds was conducted in duplicate.

5HT1A receptor = 5HT1A receptor (Rattus norvegicus (Rat), UniProt P19327); assay: 5HT1A receptor binding assay (3H-8-OH-DPAT, rat brain mantle membrane); conditions: for inhibition at 10 µM: test compound final concentration 10^-5 M; for IC50: values marked a = IC50
Sequence of 5HT1A receptor (P19327 whole entry): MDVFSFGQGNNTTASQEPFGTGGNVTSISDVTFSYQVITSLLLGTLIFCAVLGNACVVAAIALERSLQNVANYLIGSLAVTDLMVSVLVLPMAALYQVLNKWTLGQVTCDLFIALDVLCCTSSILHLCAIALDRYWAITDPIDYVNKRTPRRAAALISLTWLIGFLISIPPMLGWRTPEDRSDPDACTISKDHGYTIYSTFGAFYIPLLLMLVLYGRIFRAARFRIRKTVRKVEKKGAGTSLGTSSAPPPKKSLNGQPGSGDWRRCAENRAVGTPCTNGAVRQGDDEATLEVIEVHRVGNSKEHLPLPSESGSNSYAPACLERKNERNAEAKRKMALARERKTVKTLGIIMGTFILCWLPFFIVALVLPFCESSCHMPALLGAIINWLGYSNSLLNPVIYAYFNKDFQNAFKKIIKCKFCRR
Experimental: Incubation at 37° C. was conducted for 10 min, the weight of the tubes were adjusted using a balance after incubation. […] Centrifugation was conducted and repeated 3 times.

5HT2C = 5HT2C (Rattus norvegicus (Rat), UniProt P08909); assay: 5HT2C receptor binding assay ([3H]-mesulergine, rat brain mantle membrane); conditions: test compound final concentration 10^-5 M
Sequence of 5HT2C (P08909 33-460 limits assumed): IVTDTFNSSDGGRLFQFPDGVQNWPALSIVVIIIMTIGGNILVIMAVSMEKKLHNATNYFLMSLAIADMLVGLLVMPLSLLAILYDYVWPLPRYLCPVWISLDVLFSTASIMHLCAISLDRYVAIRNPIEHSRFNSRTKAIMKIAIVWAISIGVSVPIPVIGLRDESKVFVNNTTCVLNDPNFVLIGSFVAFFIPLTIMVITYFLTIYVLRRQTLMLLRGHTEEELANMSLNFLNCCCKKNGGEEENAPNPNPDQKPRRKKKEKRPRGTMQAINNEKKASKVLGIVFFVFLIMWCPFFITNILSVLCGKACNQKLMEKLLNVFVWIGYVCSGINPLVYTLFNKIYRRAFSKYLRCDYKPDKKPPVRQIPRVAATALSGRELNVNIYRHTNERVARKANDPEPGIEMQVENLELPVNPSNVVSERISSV
Experimental: Incubation at 37° C. was conducted for 10 min, the weight of the tubes were adjusted using a balance after the incubation. […] Centrifugation was conducted (repeated 3 times).

D3 receptor = D3 receptor (Homo sapiens (Human), UniProt P35462); assay: D3 receptor binding assay ([3H]-Spiperone, HEK-293 cells); conditions: test compound final concentration 10 μmol/L
Sequence of D3 receptor (P35462 whole entry): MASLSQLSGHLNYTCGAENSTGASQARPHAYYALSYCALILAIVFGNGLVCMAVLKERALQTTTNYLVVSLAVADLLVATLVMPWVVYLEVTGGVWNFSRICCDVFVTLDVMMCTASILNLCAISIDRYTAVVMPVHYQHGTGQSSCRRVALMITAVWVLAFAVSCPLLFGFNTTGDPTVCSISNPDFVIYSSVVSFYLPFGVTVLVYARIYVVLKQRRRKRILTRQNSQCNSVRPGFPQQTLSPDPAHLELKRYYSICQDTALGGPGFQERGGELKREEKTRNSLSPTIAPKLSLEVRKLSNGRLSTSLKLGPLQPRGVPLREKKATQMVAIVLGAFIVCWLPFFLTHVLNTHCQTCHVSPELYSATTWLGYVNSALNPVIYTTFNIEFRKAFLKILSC
Experimental: After the cells were centrifuged at 1000 rpm for 5 min, the supernatant was discarded, and the cell pellet was collected and stored in a −20° C. fridge for reservation. It was re-suspended with Tris-Cl (pH 7.4) in the assay.
Tris was divided into aliquots by Genetimes Technology Inc.
Competitive binding test for receptors: 20 μl of each of the test compounds and 20 μl of the radioactive ligand together with 160 μl of the receptor proteins were added into the reaction tubes, and the final concentrations of the test compound and the positive drug were all 10 μmol/L. After 50 min of incubation in 30° C. water bath, the tubes were immediately moved to ice bath to terminate the reactions. GF/C glass fiber filter papers were used for rapid sucking filtration on a Millipore cell sample collector, elution buffer (50 mM Tris-HCl, PH 7.4) was applied for 3 ml×3 times, and microwave was applied for 4-5 min for drying. The filter papers were moved into 0.5 ml centrifuge tubes, and 500 μl of lipid-soluble scintillation solution was added. The tubes were allowed to stand still for over 30 min in dark, and the intensities of radioactivity were measured by a counter.

in vivo = conditions: both sexes, mouse, in vivo, po
Experimental: (§1) KM mice (half male and half female) were randomly divided into several groups (with 2-5 mice in each group), which were respectively the 2000 mg/kg groups for each compound, and the solvent group. 0.2 ml/10 g were administered intragastrically. The death of the animals in 3 days were observed. (In the case 3 or more animals survived in 3 days without notable abnormity in their life states, the observation was continued until the assay was completed in 7 days. In the case 3 or more animals died in 3 days, the median lethal dose method was used to determine the LD50).
(§2) KM mice (half male and half female) were randomly divided into several groups (with 4 mice in each group), which were respectively the 1500 mg/kg, 1000 mg/kg, 500 mg/kg groups for each compound, and the solvent group. 0.2 ml/10 g were administered intragastrically, and the death of the animals in 1-3 days were observed.

[1] = test system: apomorphine induced clambering of mice; assay: Apomorphine induced clambering assay of mice; conditions: for ED50: Mus musculus, po, read-out: apomorphine induced clambering ED50; for improvement of apomorphine induced clambering symptoms (in words): compared to the model group
Experimental: Apomorphine provided by Sigma Company was dissolved in 0.9% NaCl (containing 0.1% vitamin C) before use, and was freshly formulated before use.
Instruments: self-made clambering cage, chronograph.
After 5 min of adaptation, the behaviors of the mice at 10-11, 20-21, 30-31 min after the injection of apomorphine were observed.

[2] = test system: MK-801 high activity mice; assay: MK-801 induced high activity in mice; format: in vivo; conditions: for Total moving distance: MK-801 high activity mice, within 90 min; for ED50: Mus musculus, po, read-out: MK-801 induced high activity ED50; for improvement of MK-801 induced high activity (in words): compared to the model group
Experimental: Ascorbic acid was provided by Sinopharm Chemical Reagent Co. Ltd.
MK-801 was produced by Sigma Company, USA; the formulation method: 0.1% vitamin C was used to formulate a 1 mg/ml solution.
Tween 80, with the concentration of 10%.
Mice with qualified body weight were selected, and randomly divided into blank group, model group, positive control group (risperidone group) and drug group. […] 1 H after the administration, 0.1% of ascorbic acid was intraperitoneally injected to the blank group at 0.1 ml/10 g; and the model group, the positive control group (30 min) and the drug group were intraperitoneally injected the MK-801 solution at 0.1 mg/kg. Subsequently, the spontaneous activities of the mice of each group in 90 min were measured.

KM mice (catalepsy) = assay: Catalepsy assay in mice; format: in vivo; conditions: for catalepsy/MK-801 / catalepsy/apomorphine: ratio of ED50 values
Experimental: (§3) The durations for the mice to maintain the posture with the two forepaws on the bars were recorded, and 30 s of spasticity without moving was considered as the positive response. In the case the forepaws of the mice were not put down persistently, the observation was terminated at 60 s. The numbers of animals with positive response in each of the compound dosage groups were counted.

Catalepsy assay in mice = format: in vivo; conditions: both sexes, Kunming (KM), mouse, in vivo; po, mice
Experimental: as §3

[3] = test system: four receptors (D2, D3, 5-HT1A and 5-HT2A); assay: In vitro receptor binding assays, summary over four receptors; conditions: in vitro assay
KM mice = assay: in vivo; conditions: po, single intragastric administration in mice
Experimental: as §1, §2

[4] = single intragastric administration in mice, read-out: LD50

Sequence of 5HT2A receptor (P14842 whole entry): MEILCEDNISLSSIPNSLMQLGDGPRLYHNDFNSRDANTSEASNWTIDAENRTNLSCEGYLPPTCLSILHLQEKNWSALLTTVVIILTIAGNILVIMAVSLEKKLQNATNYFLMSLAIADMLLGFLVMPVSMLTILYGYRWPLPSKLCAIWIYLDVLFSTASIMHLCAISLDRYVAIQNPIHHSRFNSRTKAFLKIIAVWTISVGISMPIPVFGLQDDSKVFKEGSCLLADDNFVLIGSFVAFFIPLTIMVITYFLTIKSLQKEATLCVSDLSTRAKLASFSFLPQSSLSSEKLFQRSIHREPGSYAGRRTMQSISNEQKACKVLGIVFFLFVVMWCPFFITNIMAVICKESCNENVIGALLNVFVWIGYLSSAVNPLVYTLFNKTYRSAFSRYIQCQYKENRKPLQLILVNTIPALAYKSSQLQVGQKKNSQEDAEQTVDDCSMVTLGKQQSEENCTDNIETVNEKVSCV

c1ccc(-c2nnc(SCCCN3CCN(c4nsc5ccccc45)CC3)o2)cc1 [Compound 1]
inhibition at 10 µM (5HT2A receptor): 87.1% | inhibition at 10 µM (D2 receptor): 62.4% | inhibition at 10 µM (5HT1A receptor): 17.9%

Fc1ccc2c(C3CCN(CCCSc4nnc(-c5ccccc5)o4)CC3)noc2c1 [Compound 2]
inhibition at 10 µM (5HT2A receptor): 11% | inhibition at 10 µM (D2 receptor): 77.5% | inhibition at 10 µM (5HT1A receptor): 6.1%

COc1ccc(-c2nnc(SCCCN3CCN(c4nsc5ccccc45)CC3)o2)cc1 [Compound 3]
inhibition at 10 µM (5HT2C): 98.5% | IC50 (5HT2A receptor): 2.27 nM | inhibition at 10 µM (D2 receptor): 108% | inhibition at 10 µM (D3 receptor): 99.5% | IC50 (5HT1A receptor): 8.82 nM

COc1ccc(-c2nnc(SCCCN3CCC(c4noc5cc(F)ccc45)CC3)o2)cc1 [Compound 4]
inhibition at 10 µM (5HT2C): 82.1% | IC50 (5HT2A receptor): 0.51 nM | LD50 (in vivo; [4]): > 2000 mg/kg | ED50 [1]: 1.62 mg/kg | improvement of apomorphine induced clambering symptoms (in words) [1]: effectively improve | Total moving distance ([2]; 3 mg/kg intragastric): 24988.83 ± 7617.21 cm | Total moving distance ([2]; 5 mg/kg intragastric): 22872.82 ± 10538.51 cm | Total moving distance ([2]; 10 mg/kg intragastric): 13574.51 ± 5340.38 cm | Total moving distance ([2]; 30 mg/kg intragastric): 7773.56 ± 3681.67 cm | Total moving distance ([2]; 100 mg/kg intragastric): 6954.61 ± 4931.26 cm | ED50 ([2]; mice): 15.4 mg/kg | improvement of MK-801 induced high activity (in words) [2]: significantly improve | inhibition at 10 µM (D2 receptor): 113% | inhibition at 10 µM (D3 receptor): 101% | EPS at effective dosage (in words) (KM mice (catalepsy)): did not cause EPS | catalepsy/MK-801 (KM mice (catalepsy)): 41.56 | catalepsy/apomorphine (KM mice (catalepsy)): 395.30 | ED50 (Catalepsy assay in mice): 640 mg/kg | IC50 (5HT1A receptor): 12.7 nM

Clc1ccc(-c2nnc(SCCCN3CCN(c4nsc5ccccc45)CC3)o2)cc1 [Compound 5]
inhibition at 10 µM (5HT2C): 56.5% | IC50 (5HT2A receptor): 62.5 nM | inhibition at 10 µM (D2 receptor): 92.7% | inhibition at 10 µM (D3 receptor): 98.7% | IC50 (5HT1A receptor): 26.9 nM

Fc1ccc2c(C3CCN(CCCSc4nnc(-c5ccc(Cl)cc5)o4)CC3)noc2c1 [Compound 6]
inhibition at 10 µM (5HT2C): 68.1% | IC50 (5HT2A receptor): 15.1 nM | LD50 (in vivo; [4]): > 2000 mg/kg | ED50 [1]: 4.1 mg/kg | improvement of apomorphine induced clambering symptoms (in words) [1]: effectively improve | Total moving distance ([2]; 3 mg/kg intragastric): 20912.66 ± 9887.01 cm | Total moving distance ([2]; 5 mg/kg intragastric): 15745.74 ± 5475.41 cm | Total moving distance ([2]; 10 mg/kg intragastric): 12997.51 ± 7859.06 cm | Total moving distance ([2]; 20 mg/kg intragastric): 6741.35 ± 2251.52 cm | Total moving distance ([2]; 30 mg/kg intragastric): 8454.72 ± 7864.50 cm | ED50 ([2]; mice): 3.31 mg/kg | improvement of MK-801 induced high activity (in words) [2]: significantly improve | inhibition at 10 µM (D2 receptor): 104% | inhibition at 10 µM (D3 receptor): 101% | EPS at effective dosage (in words) (KM mice (catalepsy)): did not cause EPS | catalepsy/MK-801 (KM mice (catalepsy)): 28.02 | catalepsy/apomorphine (KM mice (catalepsy)): 22.62 | ED50 (Catalepsy assay in mice): 92.7 mg/kg | IC50 (5HT1A receptor): 19.9 nM

FC(F)(F)c1ccc(-c2nnc(SCCCN3CCN(c4nsc5ccccc45)CC3)o2)cc1 [Compound 7, 2-((3-(4-(3-benzisothiazole)-1-piperazinyl)propylthio)-5-(4-trifluoromethyl)phenyl)-1,3,4-oxadiazole]
inhibition at 10 µM (5HT2A receptor): 98.8% | inhibition at 10 µM (D2 receptor): 80.6% | inhibition at 10 µM (5HT1A receptor): 113%

Fc1ccc2c(C3CCN(CCCSc4nnc(-c5ccc(C(F)(F)F)cc5)o4)CC3)noc2c1 [Compound 8, 2-((3-(4-(3-(6-fluoro-benzisoxazole))-1-piperidyl)propylthio)-5-(4-trifluoromethyl)phenyl)-1,3,4-oxadiazole]
inhibition at 10 µM (5HT2A receptor): 101% | inhibition at 10 µM (D2 receptor): 105% | inhibition at 10 µM (5HT1A receptor): 20.8%

Fc1ccc(-c2nnc(SCCCN3CCN(c4nsc5ccccc45)CC3)o2)cc1 [Compound 9, 2-((3-(4-(3-benzisothiazole)-1-piperazinyl)propylthio)-5-(4-fluoro)phenyl)-1,3,4-oxadiazole]
inhibition at 10 µM (5HT2A receptor): 103% | inhibition at 10 µM (D2 receptor): 84.8% | inhibition at 10 µM (5HT1A receptor): 107%

Fc1ccc(-c2nnc(SCCCN3CCC(c4noc5cc(F)ccc45)CC3)o2)cc1 [Compound 10, 2-((3-(4-(3-(6-fluoro-benzisoxazole))-1-piperidyl)propylthio)-5-(4-fluoro)phenyl)-1,3,4-oxadiazole]
inhibition at 10 µM (5HT2A receptor): 117% | inhibition at 10 µM (D2 receptor): 88.6% | inhibition at 10 µM (5HT1A receptor): 56.4%

c1ccc2c(-c3nnc(SCCCN4CCN(c5nsc6ccccc56)CC4)o3)cccc2c1 [Compound 11]
inhibition at 10 µM (5HT2A receptor): 91% | inhibition at 10 µM (D2 receptor): 25.7% | affinities to D2, D3, 5-HT1A and 5-HT2A receptors (in words) [3]: relatively stronger affinities | affinity compared to aripiprazole (in words) [3]: equivalent to aripiprazole | inhibition at 10 µM (5HT1A receptor): 45.8%

Fc1ccc2c(C3CCN(CCCSc4nnc(-c5cccc6ccccc56)o4)CC3)noc2c1 [Compound 12]
inhibition at 10 µM (5HT2C): 60.6% | IC50 (5HT2A receptor): 122 nM | LD50 (in vivo; [4]): > 2000 mg/kg | ED50 [1]: 4.03 mg/kg | improvement of apomorphine induced clambering symptoms (in words) [1]: effectively improve | Total moving distance ([2]; 10 mg/kg intragastric): 20521.27 ± 7898.02 cm | Total moving distance ([2]; 20 mg/kg intragastric): 12936.50 ± 3627.24 cm | Total moving distance ([2]; 30 mg/kg intragastric): 16163.49 ± 7769.48 cm | Total moving distance ([2]; 50 mg/kg intragastric): 10298.82 ± 4269.95 cm | Total moving distance ([2]; 100 mg/kg intragastric): 5665.86 ± 1799.20 cm | ED50 ([2]; mice): 15 mg/kg | improvement of MK-801 induced high activity (in words) [2]: significantly improve | inhibition at 10 µM (D2 receptor): 98.4% | affinities to D2, D3, 5-HT1A and 5-HT2A receptors (in words) [3]: relatively stronger affinities | affinity compared to aripiprazole (in words) [3]: equivalent to aripiprazole | inhibition at 10 µM (D3 receptor): 100% | EPS at effective dosage (in words) (KM mice (catalepsy)): did not cause EPS | catalepsy/MK-801 (KM mice (catalepsy)): 20.00 | catalepsy/apomorphine (KM mice (catalepsy)): 74.44 | ED50 (Catalepsy assay in mice): 300 mg/kg | IC50 (5HT1A receptor): 175 nM

c1csc(-c2nnc(SCCCN3CCN(c4nsc5ccccc45)CC3)o2)c1 [Compound 13]
inhibition at 10 µM (5HT2A receptor): 101% | inhibition at 10 µM (D2 receptor): 47.8% | inhibition at 10 µM (5HT1A receptor): 95.9%

c1ccc2c(N3CCN(CCCSc4nnc(-c5ccncc5)o4)CC3)nsc2c1 [Compound 15]
inhibition at 10 µM (5HT2A receptor): 95.1% | inhibition at 10 µM (D2 receptor): 88.1% | inhibition at 10 µM (5HT1A receptor): 114%

Fc1ccc2c(C3CCN(CCCSc4nnc(-c5ccncc5)o4)CC3)noc2c1 [Compound 16]
inhibition at 10 µM (5HT2A receptor): 107% | inhibition at 10 µM (D2 receptor): 45.9% | inhibition at 10 µM (5HT1A receptor): 86.7%

O=C1CCc2ccc(OCCCCN3CCN(c4cccc(Cl)c4Cl)CC3)cc2N1 [aripiprazole]
LD50 (in vivo; KM): 1400 mg/kg

Cc1nc2n(c(=O)c1CCN1CCC(c3noc4cc(F)ccc34)CC1)CCCC2 [risperidone, reference compound]
LD50 (KM mice): 82.1 mg/kg | LD50 (in vivo; [4]): 82.1 mg/kg | ED50 [1]: 0.02 mg/kg | improvement of apomorphine induced clambering symptoms (in words) [1]: effectively improve | ED50 [2]: 0.01 mg/kg | improvement of MK-801 induced high activity (in words) [2]: significantly improve

O=C1Cc2cc(CCN3CCN(c4nsc5ccccc45)CC3)c(Cl)cc2N1 [ziprasidone]
LD50 (in vivo; [4]): 2000 mg/kg
